Test results reported in PMC11995216, “End-to-End Backbone Cyclization Enhances Passive Permeability of bRo5 Oligomeric Depsipeptides with Nonlinear Size Dependence” (ACS Medicinal Chemistry Letters, 2025).
“And” between values parts separate entries of the source, which are not always exact repeats. Equal entries are not always repeated. Where two headings read alike, the source gives them in different places. One block for each compound: values may come before it.

Legend:
[1] = tested on: PAMPA; settings: Well 5 / [acc]
[2] = tested on: PAMPA
[3] = tested on: PAMPA; remark: listed apart in the source
[4] = tested on: PAMPA; settings: calculated using Supplement Equation 1, UV detection
[5] = tested on: PAMPA; remark: listed apart in the source
[6] = tested on: PAMPA; settings: UV detection
[7] = initial concentration 500 uM, standard curve, UV detection
[8] = initial concentration 500 uM, standard curve, UV detection; remark: listed apart in the source
[9] = PAMPA, 500 uM
[10] = calculated using Supplement Equation 1, UV detection
[11] = UV detection
[12] = in vitro; settings: PAMPA

Structure (SMILES): CCCCC[C@@H]1OC(=O)[C@@H](C)N(C)C(=O)[C@H](CCCCC)OC(=O)[C@@H](C)N(C)C(=O)[C@H](CCCCC)OC(=O)[C@@H](C)N(C)C(=O)[C@H](CCCCC)OC(=O)[C@@H](C)N(C)C(=O)[C@H](CCCCC)OC(=O)[C@@H](C)N(C)C1=O [Compound C1.5]
acceptor concentration after incubation [1]: 61.8 µM
donor concentration after incubation ([2]; Well 1 / [donor]): 379 µM and 372 µM
donor concentration after incubation ([2]; Well 2 / [donor]): 370 µM and 384 µM
donor concentration after incubation ([2]; Well 3 / [donor]): 400 µM and 367 µM
donor concentration after incubation ([2]; Well 4 / [donor]): 389 µM and 372 µM
donor concentration after incubation ([2]; Well 5 / [donor]): 376 µM and 362 µM
Papp ([3]; Papp (x 10^-6 cm/s) – ELSD Detection / [row 2], ELSD Detection): 2.93 ×10⁻⁶ cm/s
Papp ([3]; Papp (x 10^-6 cm/s) – ELSD Detection / [row 3], ELSD Detection): 2.62 ×10⁻⁶ cm/s
Papp ([3]; Papp (x 10^-6 cm/s) – ELSD Detection / [row 4], ELSD Detection): 2.78 ×10⁻⁶ cm/s
Papp ([3]; Papp (x 10^-6 cm/s) – ELSD Detection / [row 5], ELSD Detection): 3.09 ×10⁻⁶ cm/s
Papp ([3]; Papp (x 10^-6 cm/s) – ELSD Detection / [row 6], ELSD Detection): 2.8 ×10⁻⁶ cm/s
Papp ([3]; Papp (x 10^-6 cm/s) – ELSD Detection / [row 7], ELSD Detection): 3.15 ×10⁻⁶ cm/s
Papp ([3]; Papp (x 10^-6 cm/s) – ELSD Detection / [row 8], ELSD Detection): 2.83 ×10⁻⁶ cm/s
Papp ([3]; Papp (x 10^-6 cm/s) – ELSD Detection / [row 9], ELSD Detection): 2.67 ×10⁻⁶ cm/s
Papp ([3]; Papp (x 10^-6 cm/s) – ELSD Detection / [row 10], ELSD Detection): 3.08 ×10⁻⁶ cm/s
Papp ([3]; Papp (x 10^-6 cm/s) – UV Detection / [row 1], UV Detection): 3.3 ×10⁻⁶ cm/s
Papp ([3]; Papp (x 10^-6 cm/s) – UV Detection / [row 2], UV Detection): 3.13 ×10⁻⁶ cm/s
Papp ([3]; Papp (x 10^-6 cm/s) – UV Detection / [row 3], UV Detection): 3.08 ×10⁻⁶ cm/s
Papp ([3]; Papp (x 10^-6 cm/s) – UV Detection / [row 4], UV Detection): 2.85 ×10⁻⁶ cm/s
Papp ([3]; Papp (x 10^-6 cm/s) – UV Detection / [row 5], UV Detection): 3.14 ×10⁻⁶ cm/s
Papp ([3]; Papp (x 10^-6 cm/s) – UV Detection / [row 6], UV Detection): 3.54 ×10⁻⁶ cm/s
Papp ([3]; Papp (x 10^-6 cm/s) – UV Detection / [row 7], UV Detection): 3.19 ×10⁻⁶ cm/s
Papp ([3]; Papp (x 10^-6 cm/s) – UV Detection / [row 8], UV Detection): 3.6 ×10⁻⁶ cm/s
Papp ([3]; Papp (x 10^-6 cm/s) – UV Detection / [row 9], UV Detection): 3.64 ×10⁻⁶ cm/s
Papp ([3]; Papp (x 10^-6 cm/s) – UV Detection / [row 10], UV Detection): 3.64 ×10⁻⁶ cm/s
%T ([4]; Well 1 / %T, Well 1): 0.44% and 0.46%
%T ([4]; Well 2 / %T, Well 2): 0.42% and 0.43%
%T ([4]; Well 3 / %T, Well 3): 0.42% and 0.47%
%T ([4]; Well 4 / %T, Well 4): 0.39% and 0.47%
%T ([4]; Well 5 / %T, Well 5): 0.42% and 0.47%
Acceptor Concentration ([5]; Acceptor Concentration (uM) – ELSD Detection / [row 1]): 67.5 µM
Acceptor Concentration ([5]; Acceptor Concentration (uM) – ELSD Detection / [row 2]): 63.9 µM
Acceptor Concentration ([5]; Acceptor Concentration (uM) – ELSD Detection / [row 3]): 64.8 µM
Acceptor Concentration ([5]; Acceptor Concentration (uM) – ELSD Detection / [row 4]): 62.3 µM
Acceptor Concentration ([5]; Acceptor Concentration (uM) – ELSD Detection / [row 5]): 65.1 µM
Acceptor Concentration ([5]; Acceptor Concentration (uM) – ELSD Detection / [row 6]): 65 µM
Acceptor Concentration ([5]; Acceptor Concentration (uM) – ELSD Detection / [row 7]): 68.5 µM
Acceptor Concentration ([5]; Acceptor Concentration (uM) – ELSD Detection / [row 8]): 67.7 µM
Acceptor Concentration ([5]; Acceptor Concentration (uM) – ELSD Detection / [row 9]): 61.3 µM
Acceptor Concentration ([5]; Acceptor Concentration (uM) – ELSD Detection / [row 10]): 66.1 µM
Acceptor Concentration ([5]; Acceptor Concentration (uM) – UV Detection / [row 1]): 66.6 µM
Acceptor Concentration ([5]; Acceptor Concentration (uM) – UV Detection / [row 2]): 60.4 µM
Acceptor Concentration ([5]; Acceptor Concentration (uM) – UV Detection / [row 4]): 56.7 µM
Acceptor Concentration ([5]; Acceptor Concentration (uM) – UV Detection / [row 5]): 61.9 µM
Acceptor Concentration ([5]; Acceptor Concentration (uM) – UV Detection / [row 6]): 71.3 µM
Acceptor Concentration ([5]; Acceptor Concentration (uM) – UV Detection / [row 7]): 64.8 µM
Acceptor Concentration ([5]; Acceptor Concentration (uM) – UV Detection / [row 8]): 71.7 µM
Acceptor Concentration ([5]; Acceptor Concentration (uM) – UV Detection / [row 9]): 73.6 µM
Acceptor Concentration ([5]; Acceptor Concentration (uM) – UV Detection / [row 10]): 71.6 µM
% recovery ([6]; Well 2 / %R, Well 2): 86% and 90%
% recovery ([6]; Well 3 / %R, Well 3): 93% and 88%
% recovery ([6]; Well 5 / %R, Well 5): 88% and 87%

Papp ([3]; Papp (x 10^-6 cm/s) / experiment 1, UV detection): 3.2 ×10⁻⁶ cm/s
Papp ([3]; Papp (x 10^-6 cm/s) / experiment 2, UV detection): 3.8 ×10⁻⁶ cm/s
Papp ([3]; Papp (x 10^-6 cm/s) / experiment 3, UV detection): 3.8 ×10⁻⁶ cm/s
Papp ([3]; Papp (x 10^-6 cm/s) / experiment 4, UV detection): 3.7 ×10⁻⁶ cm/s
Papp ([3]; Papp (x 10^-6 cm/s) / experiment 5, UV detection): 3.9 ×10⁻⁶ cm/s
Papp ([3]; Papp (x 10^-6 cm/s) / experiment 6, UV detection): 3.4 ×10⁻⁶ cm/s
Papp ([3]; Papp (x 10^-6 cm/s) / experiment 7, UV detection): 3.9 ×10⁻⁶ cm/s
Papp ([3]; Papp (x 10^-6 cm/s) / experiment 8, UV detection): 3.3 ×10⁻⁶ cm/s
Papp ([3]; Papp (x 10^-6 cm/s) / experiment 9, UV detection): 3.7 ×10⁻⁶ cm/s
Papp ([3]; Papp (x 10^-6 cm/s) / experiment 10, UV detection): 3.6 ×10⁻⁶ cm/s
Δ % diffusion [9]: ↑5%
%T ([10]; Well 1 / %T, Well 1): 0.43% and 0.47%
%T ([10]; Well 2 / %T, Well 2): 0.48% and 0.46%
%T ([10]; Well 3 / %T, Well 3): 0.48% and 0.47%
%T ([10]; Well 4 / %T, Well 4): 0.48% and 0.49%
%T ([10]; Well 5 / %T, Well 5): 0.5% and 0.49%
% recovery ([11]; Well 1 / %R, Well 1): 93%
% recovery ([11]; Well 2 / %R, Well 2): 96%
% recovery ([11]; Well 3 / %R, Well 3): 85% and 90%
% recovery ([11]; Well 4 / %R, Well 4): 84% and 85%
% recovery ([11]; Well 5 / %R, Well 5): 82%
Papp at 500 uM ([12]; LogPapp): 1.82 ×10⁻⁶ cm/s
Papp at 500 uM ([12]; Papp): 3.44 ± 0.33 ×10⁻⁶ cm/s
Structure (SMILES): CCCCC[C@H](OC(=O)[C@@H](C)N(C)C(=O)[C@H](CCCCC)OC(=O)[C@@H](C)N(C)C(=O)OC(C)(C)C)C(=O)OCc1ccccc1 [Compound L1.2]
acceptor concentration after incubation ([7]; Well 1 / [acc], Well 1): 77 µM
acceptor concentration after incubation ([7]; Well 2 / [acc], Well 2): 81.5 µM
acceptor concentration after incubation ([7]; Well 3 / [acc], Well 3): 79.5 µM
acceptor concentration after incubation ([7]; Well 4 / [acc], Well 4): 78.8 µM
acceptor concentration after incubation ([7]; Well 5 / [acc], Well 5): 81.8 µM
donor concentration after incubation ([8]; Well 1 / [donor], Well 1): 391 µM and 364 µM
donor concentration after incubation ([8]; Well 2 / [donor], Well 2): 361 µM and 396 µM
donor concentration after incubation ([8]; Well 3 / [donor], Well 3): 348 µM and 368 µM
donor concentration after incubation ([8]; Well 4 / [donor], Well 4): 345 µM and 348 µM
donor concentration after incubation ([8]; Well 5 / [donor], Well 5): 331 µM and 358 µM
Acceptor Concentration ([5]; Acceptor Concentration (uM) / experiment 1, UV detection, initial concentration 500 uM): 72 µM
Acceptor Concentration ([5]; Acceptor Concentration (uM) / experiment 2, UV detection, initial concentration 500 uM): 80.6 µM
Acceptor Concentration ([5]; Acceptor Concentration (uM) / experiment 3, UV detection, initial concentration 500 uM): 77.4 µM
Acceptor Concentration ([5]; Acceptor Concentration (uM) / experiment 4, UV detection, initial concentration 500 uM): 75.2 µM
Acceptor Concentration ([5]; Acceptor Concentration (uM) / experiment 5, UV detection, initial concentration 500 uM): 77.1 µM
Acceptor Concentration ([5]; Acceptor Concentration (uM) / experiment 6, UV detection, initial concentration 500 uM): 90.3 µM
Acceptor Concentration ([5]; Acceptor Concentration (uM) / experiment 7, UV detection, initial concentration 500 uM): 86.9 µM
Acceptor Concentration ([5]; Acceptor Concentration (uM) / experiment 8, UV detection, initial concentration 500 uM): 80.4 µM
Acceptor Concentration ([5]; Acceptor Concentration (uM) / experiment 9, UV detection, initial concentration 500 uM): 87.3 µM
Acceptor Concentration ([5]; Acceptor Concentration (uM) / experiment 10, UV detection, initial concentration 500 uM): 83.7 µM
